Experimental data: PMC6164072, “Lysoquinone-TH1, a New Polyphenolic Tridecaketide Produced by Expressing the Lysolipin Minimal PKS II in Streptomyces albus” (Antibiotics, 2018)

Target: T1, PDE-4B2 (Homo sapiens, UniProt Q07343)
T1 construct: gene PDE4B; human recombinant PDE-4B2 (BPS Bioscience no. 60042)
Test: PDELight HTS cAMP phosphodiesterase luminescence assay
Type: biochemical

T1 sequence (Q07343 1-564 isoform Q07343-2): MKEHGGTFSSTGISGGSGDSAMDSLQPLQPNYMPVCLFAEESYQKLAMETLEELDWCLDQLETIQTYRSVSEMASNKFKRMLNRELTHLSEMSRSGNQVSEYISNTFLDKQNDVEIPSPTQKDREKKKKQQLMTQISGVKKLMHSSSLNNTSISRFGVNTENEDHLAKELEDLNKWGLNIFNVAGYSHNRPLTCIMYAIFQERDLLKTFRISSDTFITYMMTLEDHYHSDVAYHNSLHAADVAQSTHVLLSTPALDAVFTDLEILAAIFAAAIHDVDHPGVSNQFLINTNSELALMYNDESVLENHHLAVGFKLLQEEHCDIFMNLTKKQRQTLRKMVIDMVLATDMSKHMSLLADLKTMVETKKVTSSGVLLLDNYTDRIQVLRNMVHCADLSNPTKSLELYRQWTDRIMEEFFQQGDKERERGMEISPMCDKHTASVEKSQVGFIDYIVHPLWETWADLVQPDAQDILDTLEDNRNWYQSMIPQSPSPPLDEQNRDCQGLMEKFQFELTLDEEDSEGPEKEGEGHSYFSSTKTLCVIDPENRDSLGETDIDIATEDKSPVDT

## lysoquinone-TH1 [compound 7]
  IC50: 10 to 20 µM
